These are literature values, as cited in article PMC7909736 (Pharmaceutical Research, 2021).

For the series the following is noted: share rate of 10 s^−1, room temperature.

`CC(=CCCCOCC(O)CO)CCCC(C)CCCC(C)C` (stereo not shown) [Formulation C17MGE, mono-O-(5,9, 13-trimethyl-4-tetradecenyl) glycerol ester]: the Viscosity was 0.47 Pa·s.
